We go through one compound from patent US11779582B2, “Composition for preventing or treating metastatic ovarian cancer, endometrial cancer or breast cancer” (LEMONEX INC., priority 2017, dated 2023).

Common to all, as to format: cell-based
Data set [1] relates to cleaved PARP in SKOV3-TR ovarian cancer cells. Nature of the data set: cleaved PARP immunostaining. The following applies: BGJ398 in combination with paclitaxel (FIGS. 24 and 25). From the text: In order to identify whether a change in signaling pathways associated with cell survival appears or not according to 2D monolayer culture (2D MC) and 3D sphere culture (3D SC), immunostaining was implemented. More particularly, after culturing SKOV3ip1 cells (1×10^6) by 2D monolayer culture or 3D sphere culture described in section 1.1, expression of cell-signaling molecules including AKT, STAT3, p42/44 ERK and p38 MAPK was detected and activation states in the monolayer cultured cells and the sphere cultured cells were compared. […] An immune activation band was detected with SuperSignal West Pico Chemiluminescent Substrate (Thermo, IL, USA) using a Fusion Solo chemiluminescence analyzer (Vilber Rourmat Marne la Vallee, France). […]
FIGS. 24 and 25 illustrate expression of cleaved PARP and actin upon administration of paclitaxel alone, BGJ398 alone or in combination with paclitaxel to SKOV3-TR ovarian cancer cells, which was determined by the immunostaining method described above.

Data set [2] has as its system sphere cultured SKOV3ip1 ovarian cancer cells. Nature of the data set: crystal violet cell viability, 3D sphere culture. Here is the method: (§1) For 3D sphere culture, SKOV3ip1 cells (1×10^6) were dispensed on ultra-low adherent 6-well plate (Corning NY, USA), and then, cultured in 5% CO2 incubator using RPMI 1640 medium supplemented with 10% fetal bovine serum (Gibco, NY, USA) and 10 U/ml penicillin/streptomycin (Gibco).
In order to assess the cell viability in the sphere cultured cells, the SKOV3ip1 cells (5×10^4) were dispensed on the super-low adherent 24-well plate and cultured overnight. The cells were harvested from each well and the commercial 24-well plate was moved, followed by further incubation for 12 hours. The adhered and visualized cells were stained with 0.2% crystal violet solution for 20 minutes while gently agitating the same. The stained cells were washed with distilled water until a clean background is observed. For assessment using a colorimeter, the crystal violet dye was extracted with 1% SDS/PBS and absorbance was measured at 570 nm wavelength by EMax PLUS microplate reader (Molecular Device, USA).
The monolayer cultured or sphere cultured SKOV3ip1 cells were treated with the tyrosine kinase inhibitor and paclitaxel for 72 hours, the cell viability was determined by the crystal violet colorimeter, and results thereof are shown in FIG. 3.
Since the cell survival of the sphere cultured SKOV3ip1 cells is inhibited by BGJ398 treatment, whether such cell survival inhibition is intermediated through JAK/STAT3 signaling pathway was further examined. For this purpose, the selective JAK tyrosine kinase inhibitor AG490 was used at different concentrations of 3.125 to 50 μM in order to treat the monolayer cultured or sphere cultured SKOV3ip1 cells, and after 72 hours, whether it affects the cell viability and AKT and STAT3 activation was examined through crystal violet staining and immunostaining assay, and results thereof are shown in FIG. 7. Actin was used as a loading control group.
Under this ground, when administering BGJ398 in combination with paclitaxel typically used as the existing primary anticancer drug for ovarian cancer, whether paclitaxel resistance of the sphere cultured cells is overcome and improved was determined.

Data set [3] concerns Hs578T breast cancer cell line (2D monolayer culture). Put plainly: crystal violet staining and morphology, paclitaxel in combination with BGJ398. Here is the method: (§2) With respect to the cancer cell lines listed in Table 2 below, synergistic effects of paclitaxel and BGJ398 were further examined. According to the same procedures as described in the previous examples, each cell line was divided and cultured by 2D monolayer culture and 3D sphere culture, respectively. Then, a change due to administration of BGJ398 alone or in combination with paclitaxel was analyzed through morphological analysis.

Data set [4] has as its system HEC1B endometrial cancer cell line (2D monolayer culture). The data set is described as above. Here is the method:
as §2

Data set [5] deals with SKOV3-TR ovarian cancer cells. Put plainly: FACS assay of DNA content (propidium iodide), Sub-G1. Here is the method: More particularly, the degree of cell apoptosis can be confirmed when DNA content in the cell is treated by propidium iodide (PI) staining and is assessed by FACS. If cell apoptosis occurs, genes in the cells are disrupted and Sub-Gi region below G1 is increased.
FIG. 23 graphically illustrates FACS results, which were divided by a cell cycle in the same experiments described above. Referring to this figure, it can be seen that the treatment using 2.5 μM BGJ398 in combination with 50 nM paclitaxel increases Gub-G1 cells in SKOV-TR cells by about 2.5 times, compared to 50 nM paclitaxel alone, thereby improving anticancer activity.
On the technique in general: In flow cytometry, cells or beads pass a laser one at a time.

Data set [6] concerns sphere cultured SKOV3ip1 cells. Put plainly: microscopic observation of aggregated (spheroid) form. The following applies: 5 μM BGJ398, 3 μM TAE648, 5 μM imatinib (FIG. 5). Here is the method:
as §1

With `CCN1CCN(c2ccc(Nc3cc(N(C)C(=O)Nc4c(Cl)c(OC)cc(OC)c4Cl)ncn3)cc2)CC1` [BGJ398, 3-(2,6-dichloro-3,5-dimethoxyphenyl)-1-[6-[4-(4-ethylpiperazin-1yl)anilino]pyrimidin-4-yl]-1-methylurea], the “expression of cleaved PARP and actin” value in data set [1] was “increased in concentration- and time-dependent manners”. Moreover, the paclitaxel sensitivity result in data set [2] (3D cultured SKOV3ip1, 1.25 and 5 μM BGJ398 with paclitaxel vs BGJ398 untreated group) is “increased paclitaxel sensitivity in a dose-dependent manner”. The cytotoxicity result in data set [2] (3D sphere cultured SKOV3ip1, 1 μM BGJ398, Day 3) is recorded as “showed cytotoxicity”. Further, the cell viability result in data set [2] (sphere cultured SKOV3ip1, 72 hours, different concentrations, crystal violet colorimeter (FIG. 3)) is “reduced the cell viability in a dose-dependent manner”. Moreover, the cell apoptosis entry is “higher cell apoptosis than the cells treated with paclitaxel alone” in data set [2] (sphere cultured SKOV3ip1, paclitaxel in combination with BGJ398 vs paclitaxel alone, 72 hours (FIG. 8)); “cell apoptosis is further increased” in data set [3] (Hs578T, BGJ398 in combination with paclitaxel (FIGS. 13 and 14)); “cell apoptosis is further increased” in data set [4] (HEC1B, BGJ398 in combination with paclitaxel (FIGS. 10 and 11)). The “effect on anticancer effects of paclitaxel” value was “enhance anticancer effects of paclitaxel” in data set [3] (2D monolayer Hs578T, BGJ398 in combination with paclitaxel (FIG. 13)) and “enhance anticancer effects of paclitaxel” in data set [4] (2D monolayer HEC1B, BGJ398 in combination with paclitaxel (FIG. 10)). In data set [5] (2.5 μM BGJ398 in combination with 50 nM paclitaxel, compared to 50 nM paclitaxel alone (FIG. 23)), the “increase of Sub-G1 cells” value is on record as “about 2.5 times”. Also, the “apoptotic cells (region below G1, Sub-G1)” value in data set [5] (BGJ398 in combination with paclitaxel (FIG. 22)) was “the number of apoptotic cells is increased”. Moreover, in data set [6], the “aggregated (spheroid) form of cells” value is recorded as “did not retain a normal coagulation state”.
